According to the NIST ThermoML archive (doi:10.1021/je060271a):
Numbers after ± are expanded uncertainties.

Conditions: 283.15 K, Liquid, Vibrating tube method

CCCCCCCC(=O)OCC(COC(=O)CCCCCCC)(COC(=O)CCCCCCC)COC(=O)CCCCCCC [pentaerythritol tetraoctanoate]
Conditions	mass density [kg/m3]
24659 kPa	983.6 ± 1.2
24685 kPa	983.7 ± 1.2
24711 kPa	983.7 ± 1.2
24742 kPa	983.8 ± 1.2
24769 kPa	983.8 ± 1.2
24795 kPa	983.8 ± 1.2
24827 kPa	983.7 ± 1.2
24853 kPa	983.8 ± 1.2
24885 kPa	983.8 ± 1.2
24912 kPa	983.7 ± 1.2
24938 kPa	983.8 ± 1.2
24965 kPa	983.8 ± 1.2
24997 kPa	983.8 ± 1.2
25024 kPa	983.8 ± 1.2
25051 kPa	983.9 ± 1.2
25084 kPa	983.9 ± 1.2
25110 kPa	983.9 ± 1.2
25143 kPa	983.8 ± 1.2
25170 kPa	983.9 ± 1.2
25197 kPa	984 ± 1.2
25229 kPa	984 ± 1.2
25256 kPa	984 ± 1.2
25284 kPa	984 ± 1.2
25312 kPa	984 ± 1.2
25344 kPa	984 ± 1.2
25372 kPa	984 ± 1.2
25405 kPa	983.9 ± 1.2
25433 kPa	984.1 ± 1.2
25461 kPa	984.1 ± 1.2
25494 kPa	984.1 ± 1.2
25521 kPa	984.2 ± 1.2
25549 kPa	984.1 ± 1.2
25583 kPa	984.1 ± 1.2
25611 kPa	984.2 ± 1.2
25639 kPa	984.2 ± 1.2
25673 kPa	984.2 ± 1.2
25701 kPa	984.1 ± 1.2
25730 kPa	984.4 ± 1.2
25758 kPa	984.3 ± 1.2
25792 kPa	984.2 ± 1.2
25821 kPa	984.3 ± 1.2
25850 kPa	984.3 ± 1.2
25884 kPa	984.3 ± 1.2
25912 kPa	984.3 ± 1.2
25941 kPa	984.2 ± 1.2
25976 kPa	984.3 ± 1.2
26004 kPa	984.3 ± 1.2
26034 kPa	984.5 ± 1.2
26069 kPa	984.4 ± 1.2
26098 kPa	984.3 ± 1.2
26126 kPa	984.4 ± 1.2
26162 kPa	984.4 ± 1.2
26191 kPa	984.5 ± 1.2
26220 kPa	984.4 ± 1.2
26250 kPa	984.4 ± 1.2
26286 kPa	984.5 ± 1.2
26315 kPa	984.5 ± 1.2
26350 kPa	984.6 ± 1.2
26380 kPa	984.6 ± 1.2
26411 kPa	984.6 ± 1.2
26442 kPa	984.6 ± 1.2
26478 kPa	984.6 ± 1.2
26508 kPa	984.6 ± 1.2
26538 kPa	984.6 ± 1.2
26568 kPa	984.6 ± 1.2
26604 kPa	984.5 ± 1.2
26634 kPa	984.6 ± 1.2
26666 kPa	984.6 ± 1.2
26702 kPa	984.7 ± 1.2
26733 kPa	984.7 ± 1.2
26770 kPa	984.7 ± 1.2
26802 kPa	984.7 ± 1.2
26834 kPa	984.8 ± 1.2
26866 kPa	984.8 ± 1.2
26897 kPa	984.8 ± 1.2
26929 kPa	984.9 ± 1.2
26966 kPa	984.8 ± 1.2
26997 kPa	984.8 ± 1.2
27034 kPa	984.8 ± 1.2
27066 kPa	984.8 ± 1.2
27098 kPa	984.9 ± 1.2
27129 kPa	984.9 ± 1.2
27167 kPa	984.9 ± 1.2
27199 kPa	985 ± 1.2
27237 kPa	985.1 ± 1.2
27270 kPa	984.9 ± 1.2
27302 kPa	985.1 ± 1.2
27340 kPa	985.1 ± 1.2
27372 kPa	985 ± 1.2
27404 kPa	985 ± 1.2
27437 kPa	985 ± 1.2
27476 kPa	985.2 ± 1.2
27508 kPa	985.2 ± 1.2
27546 kPa	985.1 ± 1.2
27579 kPa	985.1 ± 1.2
27612 kPa	985.2 ± 1.2
27651 kPa	985.2 ± 1.2
27685 kPa	985.1 ± 1.2
27718 kPa	985.1 ± 1.2
27752 kPa	985.1 ± 1.2
27792 kPa	985.2 ± 1.3
27825 kPa	985.3 ± 1.2
27859 kPa	985.3 ± 1.2
27899 kPa	985.3 ± 1.2
27932 kPa	985.4 ± 1.2
27972 kPa	985.3 ± 1.2
28007 kPa	985.3 ± 1.2
28040 kPa	985.5 ± 1.2
28074 kPa	985.5 ± 1.2
28116 kPa	985.4 ± 1.2
28150 kPa	985.5 ± 1.2
28185 kPa	985.4 ± 1.2
28226 kPa	985.4 ± 1.2
28260 kPa	985.5 ± 1.2
28302 kPa	985.5 ± 1.2
28336 kPa	985.5 ± 1.2
28371 kPa	985.5 ± 1.2
28406 kPa	985.5 ± 1.2
28448 kPa	985.5 ± 1.2
28483 kPa	985.6 ± 1.2
28519 kPa	985.5 ± 1.3
28561 kPa	985.6 ± 1.2
28596 kPa	985.7 ± 1.2
28632 kPa	985.7 ± 1.2
28676 kPa	985.6 ± 1.2
28712 kPa	985.7 ± 1.2
28748 kPa	985.8 ± 1.2
28784 kPa	985.6 ± 1.2
28827 kPa	985.7 ± 1.2
28863 kPa	985.8 ± 1.2
28900 kPa	985.8 ± 1.2
28943 kPa	985.7 ± 1.2
28980 kPa	985.8 ± 1.2
29017 kPa	985.8 ± 1.2
29061 kPa	985.9 ± 1.2
29097 kPa	985.9 ± 1.2
29135 kPa	985.9 ± 1.2
29173 kPa	985.9 ± 1.2
29217 kPa	985.8 ± 1.2
29255 kPa	985.9 ± 1.2
29293 kPa	986 ± 1.2
29338 kPa	986 ± 1.2
29375 kPa	986 ± 1.2
29413 kPa	986.1 ± 1.2
29458 kPa	986 ± 1.2
29496 kPa	986 ± 1.2
29534 kPa	986.1 ± 1.2
29579 kPa	986.1 ± 1.2
